This is an account of results in ChEMBL document CHEMBL1135208, “Syntheses and EGFR and HER-2 kinase inhibitory activities of 4-anilinoquinoline-3-carbonitriles: analogues of three important 4-anilinoquinazolines currently undergoing clinical evaluation as therapeutic antitumor agents” (Bioorg Med Chem Lett, 2002).

Structures are written as SMILES. Converted amounts (≈) assume the structure as drawn. Where only a bound is given, the exact number is not on record here.

In one assay the test system is SW-620. Description: cells. The note with it: Homo sapiens. It is filed as functional, cell-based.
The test system of the next assay is SK-BR-3. Description: cells. It is filed as functional, cell-based. The note with it: Homo sapiens.
In another assay the test system is A-431. Description: cells. It is filed as functional, cell-based. To be noted: Homo sapiens.
The target of assay [1] is Receptor tyrosine-protein kinase erbB-2 (Homo sapiens, UniProt P04626).
Receptor tyrosine-protein kinase erbB-2, sequence (P04626 whole entry): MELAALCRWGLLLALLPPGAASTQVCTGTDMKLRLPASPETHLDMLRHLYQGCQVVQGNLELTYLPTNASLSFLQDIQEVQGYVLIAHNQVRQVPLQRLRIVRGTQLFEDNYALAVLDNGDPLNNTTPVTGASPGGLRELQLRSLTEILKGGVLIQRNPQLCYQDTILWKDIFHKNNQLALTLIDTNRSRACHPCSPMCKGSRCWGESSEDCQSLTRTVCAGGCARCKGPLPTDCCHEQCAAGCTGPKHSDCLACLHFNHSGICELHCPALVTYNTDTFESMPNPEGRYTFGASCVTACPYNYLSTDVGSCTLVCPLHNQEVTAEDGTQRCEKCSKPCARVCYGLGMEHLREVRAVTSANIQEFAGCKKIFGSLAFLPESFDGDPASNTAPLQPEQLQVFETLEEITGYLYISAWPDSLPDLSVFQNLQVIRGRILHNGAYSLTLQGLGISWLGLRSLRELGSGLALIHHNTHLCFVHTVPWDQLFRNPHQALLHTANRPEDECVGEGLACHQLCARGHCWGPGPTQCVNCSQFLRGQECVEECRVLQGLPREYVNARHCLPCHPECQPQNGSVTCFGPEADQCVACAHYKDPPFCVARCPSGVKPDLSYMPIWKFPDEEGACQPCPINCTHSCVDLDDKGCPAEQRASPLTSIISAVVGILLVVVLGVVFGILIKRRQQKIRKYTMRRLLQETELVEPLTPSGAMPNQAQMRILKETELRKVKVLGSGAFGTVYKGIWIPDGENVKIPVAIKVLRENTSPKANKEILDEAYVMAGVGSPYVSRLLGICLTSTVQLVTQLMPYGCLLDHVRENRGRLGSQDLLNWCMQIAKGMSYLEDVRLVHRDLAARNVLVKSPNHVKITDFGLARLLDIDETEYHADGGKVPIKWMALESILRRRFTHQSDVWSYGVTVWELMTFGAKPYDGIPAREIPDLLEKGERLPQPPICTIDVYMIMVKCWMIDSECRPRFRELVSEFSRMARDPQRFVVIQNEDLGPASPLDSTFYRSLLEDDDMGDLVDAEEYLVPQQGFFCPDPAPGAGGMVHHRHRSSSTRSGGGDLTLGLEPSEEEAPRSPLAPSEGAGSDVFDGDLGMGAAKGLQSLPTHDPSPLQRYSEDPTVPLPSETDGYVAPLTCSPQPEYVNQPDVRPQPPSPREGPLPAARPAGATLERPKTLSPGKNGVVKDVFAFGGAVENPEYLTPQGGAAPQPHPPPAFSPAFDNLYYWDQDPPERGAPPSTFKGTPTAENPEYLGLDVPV
Description: Inhibition of human epidermal growth factor receptor-2 autophosphorylation
The target of assay [2] is Epidermal growth factor receptor (Homo sapiens, UniProt P00533).
Epidermal growth factor receptor, sequence (P00533 whole entry): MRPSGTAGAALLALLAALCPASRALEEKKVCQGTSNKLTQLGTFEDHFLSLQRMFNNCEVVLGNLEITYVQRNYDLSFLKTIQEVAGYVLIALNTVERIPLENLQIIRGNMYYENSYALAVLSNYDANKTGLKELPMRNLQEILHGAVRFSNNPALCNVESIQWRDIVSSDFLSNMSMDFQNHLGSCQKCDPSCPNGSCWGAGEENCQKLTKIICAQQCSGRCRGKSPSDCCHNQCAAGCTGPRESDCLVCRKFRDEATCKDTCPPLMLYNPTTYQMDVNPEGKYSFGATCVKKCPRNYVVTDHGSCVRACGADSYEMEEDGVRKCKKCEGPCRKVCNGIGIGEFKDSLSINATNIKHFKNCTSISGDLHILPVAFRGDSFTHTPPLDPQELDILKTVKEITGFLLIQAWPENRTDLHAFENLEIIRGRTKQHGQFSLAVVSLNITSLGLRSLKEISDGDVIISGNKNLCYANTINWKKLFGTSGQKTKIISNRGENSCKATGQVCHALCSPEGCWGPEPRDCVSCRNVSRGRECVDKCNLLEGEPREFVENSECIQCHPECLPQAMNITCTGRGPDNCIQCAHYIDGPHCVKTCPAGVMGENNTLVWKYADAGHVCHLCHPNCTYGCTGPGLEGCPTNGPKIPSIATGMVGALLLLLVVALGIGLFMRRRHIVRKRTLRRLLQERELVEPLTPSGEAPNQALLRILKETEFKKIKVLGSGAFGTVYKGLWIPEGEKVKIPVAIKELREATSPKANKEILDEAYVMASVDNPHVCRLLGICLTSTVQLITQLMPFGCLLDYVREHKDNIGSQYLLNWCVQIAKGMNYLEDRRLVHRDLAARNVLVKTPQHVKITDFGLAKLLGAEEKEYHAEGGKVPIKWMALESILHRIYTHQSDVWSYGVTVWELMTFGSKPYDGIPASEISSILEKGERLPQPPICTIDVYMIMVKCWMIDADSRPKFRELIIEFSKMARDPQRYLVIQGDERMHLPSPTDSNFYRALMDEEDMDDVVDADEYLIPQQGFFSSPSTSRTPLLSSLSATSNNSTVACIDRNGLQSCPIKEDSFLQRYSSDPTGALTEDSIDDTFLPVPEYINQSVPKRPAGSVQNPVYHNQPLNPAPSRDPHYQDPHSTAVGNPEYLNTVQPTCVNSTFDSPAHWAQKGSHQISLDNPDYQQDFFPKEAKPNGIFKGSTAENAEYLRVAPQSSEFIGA
Description: Inhibition of Epidermal Growth Factor Receptor (EGFR) autophosphorylation

Description for A-431: Inhibition of A431 cell proliferation
Description for SK-BR-3: Inhibition of SKBR-3 cell proliferation
Description for SW-620: Inhibition of SW-620 cell proliferation

In the case of `C=CC(=O)Nc1cc2c(Nc3ccc(F)c(Cl)c3)ncnc2cc1OCCCN1CCOCC1` [CANERTINIB], the IC50 – broadly, the concentration that inhibits the measured activity by half – with SW-620 came to 1.45 µg/mL (≈ 2.98 µM); in the assay with SK-BR-3 it was 0.102 µg/mL (≈ 0.21 µM); with A-431, 0.083 µg/mL (≈ 0.171 µM).

In the case of `C=CC(=O)Nc1cc2c(Nc3ccc(F)c(Cl)c3)c(C#N)cnc2cc1OCCCN1CCOCC1`, the IC50 turned out to be 1690 nM in assay [1]; 0.77 µg/mL (≈ 1.51 µM) in the assay with SW-620; 80 nM in assay [2]; 0.03 µg/mL (≈ 0.0588 µM) in the assay with SK-BR-3; 0.12 µg/mL (≈ 0.235 µM) in the assay on A-431.

Consider `COc1cc2ncc(C#N)c(Nc3ccc(F)c(Cl)c3)c2cc1OCCCN1CCOCC1`, for which the IC50 in assay [1] was 14700 nM; in the assay on SW-620 it was above 5 µg/mL; in assay [2] it was 1040 nM; in the assay with SK-BR-3 it was 0.332 µg/mL (≈ 0.705 µM); in the assay on A-431, 0.25 µg/mL (≈ 0.531 µM).

`CCOc1cc2ncc(C#N)c(Nc3ccc(F)c(Cl)c3)c2cc1NC(=O)/C=C/CN(C)C` [PELITINIB]: the IC50 is 1230 nM in assay [1], 0.317 µg/mL (≈ 0.677 µM) with SW-620, 0.007 µg/mL (≈ 0.015 µM) with SK-BR-3 and 0.03 µg/mL (≈ 0.0641 µM) in the assay on A-431.

For the compound `C#Cc1cccc(Nc2c(C#N)cnc3cc(OCCOC)c(OCCOC)cc23)c1`, the IC50 in assay [1] is 11800 nM; in the assay on SW-620, 0.68 µg/mL (≈ 1.63 µM); in assay [2], 850 nM; in the assay with SK-BR-3 it was 0.071 µg/mL (≈ 0.17 µM); with A-431 it was 0.173 µg/mL (≈ 0.414 µM).
